# “Also recorded” adds a separate entry of the source.
# System: SCD mice
# Experiment: qFILM assessment of pulmonary vaso-occlusion in SCD mice IV administered oxy-Hb
# Format: in vivo, mouse
# Details: LDC7559 10 mg/kg, Z-VAD-FMK 0.004 μmol/kg
# Description: Quantitative fluorescence intravital lung microscopy (qFILM) was used to assess the absence or presence of platelet-neutrophil aggregate mediated pulmonary vaso-occlusion. Pulmonary microcirculation (pseudo-colored purple), neutrophils (red) and platelets (pseudo-colored green) were labeled in vivo by IV administration of FITC dextran, AF546-anti-Ly6G Ab and V450-anti-CD49b Ab, respectively. […] White arrows denote the direction of blood flow within the pulmonary arterioles. Alveoli are marked with asterisks. Scale bars 20 μm. The diameter of pulmonary arteriole in B-E is ˜22 μm, 32 μm, 31.5 μm, and 31 μm, respectively. […] Refer Online Data Supplement for details. […] The data for mice with SCD IV administered 10 oxy-Hb (n=5 mice; 75 FOVs) are included as black bars in FIGS. 1N and 1O for relative comparison. qFILM FOV size ˜65 536 μm^2. Data represent mean ±SE and are compared using Student t test. *P<0.05 (FIG. 1P) Schematic showing the main findings of the study. The sterile inflammatory milieu (DAMPs, IFN-I signaling, and ROS) in SCD promotes caspase-4 (humans) or caspase-11 (mouse)-dependent cleavage of neutrophil GSDMD into the active form GSDMD-NT, leading to the shedding of NETs in the liver microcirculation. Once shed, these NETs are carried by the blood as cNETs to the lung, where they promote neutrophil-platelet aggregation in the pulmonary arterioles, leading to PVO and lung injury (acute chest syndrome).
# Intravital lung microscopy (experimental scheme shown in FIG. 1A) was conducted in live mice to assess whether preventing liver-to-lung embolization of cNETs by inhibiting or deleting GSDMD-signaling leads to amelioration of pulmonary vaso-occlusion. Although large neutrophil-platelet aggregates (marked with dotted ellipses) were seen occluding the arteriolar bottle-necks, leading to impaired blood flow in the lung of SCD mice IV administered 10 μmole/kg oxy-Hb (FIG. 1B), such aggregates were rare in the lung of SCD mice IV administered 10 μmole/kg oxy-Hb with 0.004 μmol/kg pan-caspase inhibitor Z-VAD-FMK (FIG. 1C) or 10 mg/kg GSDMD-NT inhibitor LDC7559 (FIG. 1D) or 20 mg/kg GSDMD-NT inhibitor Necrosulfonamide (FIG. 1E). […] The twofold higher dose of 20 μmole/kg IV oxy-Hb also led to the development of lung vaso-occlusion in WT but not Gsdmd^−/− mice (FIG. 2). […] P-selectin deficiency led to an approximately 50% reduction in pulmonary vaso-occlusion in SCD-Selp^−/− mice administered 10 μmole/kg IV oxy-Hb (FIG. 3), however, IV administration of oxy-Hb with GSDMD-NT inhibitor (LDC7559) led to further threefold (significant) reduction in pulmonary vaso-occlusions per FOV (FIGS. 1N and 4A, and FIG. 5) and absence of large pulmonary vaso-occlusions (area>1000 μm^2) per FOV (FIG. 10) in SCD-Selp^−/− mice.
# Quantitative fluorescence intravital lung microscopy (qFILM) has been used widely for in vivo assessment of pulmonary vasoocclusion in mice with SCD [Bennewitz M F et al., (2017); Vats R, Brzoska T, Bennewitz M F, et al. (2020); Vats R, Tutuncuoglu E, Pradhan-Sundd T, Tejero J, Shaw G D, Sundd P. (2020); Bennewitz M F, Tutuncuoglu E, Gudapati S, et al. (2020)] In the current study, qFILM was used to assess pulmonary vaso-occlusion and detect NETs in the intact lung microcirculation of live mice following IV challenge with saline, oxy-hemoglobin (oxy-Hb), hemin, or lipo-polysaccharide with or without pretreatment with N-terminus active domain (GSDMD-NT) inhibitors LDC7559 [Sollberger G, Choidas A, Burn G L, et al. (2018)], NSA [Rathkey J K, Zhao J, Liu Z, et al. (2018)], Disulfiram [Hu J J, Liu X, Xia S, et al. (2020)], or the pan-caspase inhibitor Z-VAD-FMK [Sollberger G, Choidas A, Burn G L, et al. (2018)], haptoglobin [Belcher J D, Chen C, Nguyen J, et al. (2014)], or TLR4-inhibitor (TAK242) [Belcher J D, Chen C, Nguyen J, et al. (2014)]. qFILM was conducted with a Nikon multiphoton excitation fluorescence microscope and an APO LWD 25×water immersion objective with 1.1 NA. […]
# [1] = IV 10 μmole/kg oxy-Hb with inhibitor vs oxy-Hb alone, NSA 20 mg/kg
# [2] = IV 10 μmole/kg oxy-Hb with inhibitor, NSA 20 mg/kg
structure (smiles),measurement,setting,value
COc1ccccc1-c1cc2n(n1)Cc1ccc(NC(C)=O)cc1OC2 [LDC7559],Number of PVOs per Field of View (#PVOs/FOV),[1],significantly less; also recorded: significantly reduced
same,number of large PVOs (with area>1000 μm^2) per FOV,[1],significantly less; also recorded: significantly reduced
same,blood flow in the lung (rapidly transiting erythrocytes),[2],significantly improved
same,lung vaso-occlusion in representative qFILM images,[2],absence of lung vaso-occlusion; also recorded: lack of pulmonary vaso-occlusion
same,large neutrophil-platelet aggregates occluding the arteriolar bottle-necks in the lung,"IV 10 μmole/kg oxy-Hb with inhibitor, Necrosulfonamide 20 mg/kg",rare

# Source: patent US20240358721A1, “GASDERMIN-D INHIBITORS AND USES THEREOF FOR TREATING PULMONARY VASO-OCCLUSION” (UNIVERSITY OF PITTSBURGH-OF THE COMMONWEALTH SYSTEM OF …, priority 2021, published 2024)
